pIC50: −log10 of the molar value. Each block holds one compound with its values, some of them ahead of it.
What was measured:
[1] = system: Human breast cancer cells MDA-MB-436; assay: MDA-MB-436 cell activity test (CellTiter-Glo); format: cell-based; settings: 168 h, MDA-MB-436, 7 days incubation
Description: On day 1, the cells in the exponential growth phase were collected, and the cell suspension was adjusted to 4000 cells/135 μL with the culture medium. 135 μL of the cell suspension was added to each well of a 96-well cell culture plate and incubated overnight. On day 2, compounds at different concentrations were added, and the plate was placed in the incubator and incubated for 7 days. After the incubation was completed, according to operation instructions for a CellTiter-Glo kit (Promega, G7573), 75 μL of CTG solution, which had already been pre-melted and equilibrated to room temperature, was added to each well, and the mixture was uniformly mixed for 2 min using a microplate shaker. The plate was placed at room temperature for 10 min, and then […] signal values were measured using an Envision2104 plate reader (PerkinElmer). […] The IC50 value was calculated using GraphPad Prism software.

[2] = system: MDA-MB-436 subcutaneous transplanted tumor; assay: Mouse MDA-MB-436 subcutaneous in vivo transplanted tumor model; parameters: species or system BALB/c nude mice
Description: Human breast cancer cells MDA-MB-436 were placed in Leibovitz's L-15 medium (supplemented with 10 μg/mL insulin, 16 μg/mL glutathione, 10% fetal bovine serum and 1% penicillin-streptomycin solution) and cultured at 37° C. Conventional digestion treatment with trypsin was performed twice a week for passage. When the cell saturation was 80%-90%, and the number reached the requirement, the cells were harvested, counted, and inoculated. BALB/c nude mice (from Beijing Vital River Laboratory Animal Technology Co., Ltd.) were subcutaneously inoculated with 0.2 mL (10×10^6) of MDA-MB-436 cells (plus matrigel, with the volume ratio of 1:1) on the right back. When the average tumor volume reached about 180 mm^3, grouping and administration were performed (marked as Day 0). The solvent group was given 5% DMSO, 30% PEG400 and 65% of 20% sulfobutyl-β-cyclodextrin solution, and the administration group was given the compound (Day 0-Day 10:1 mg/kg; Day 11-Day 28:0.1 mg/kg). The administration frequency was once a day, the administration cycle was 29 days, and the drug withdrawal observation period was set to 14 days. After grouping, the tumor diameter was measured twice a week with a vernier caliper. The formula for calculating the tumor volume was: V=0.5×a×b^2, where a and b represented the long and short diameters of the tumor, respectively.

[3] = Pharmacokinetic test in rats; format: in vivo, SD rats; settings: rat, i.g. 10 mg/kg
Description: • 1.1 Experimental animals: male SD rats, about 220 g, 6-8 weeks old, 6 rats/compound. Purchased from Chengdu Ddossy Experimental Animals Co., Ltd. • 1.2 Experimental design: on the day of the experiment, 6 SD rats were randomly grouped according to their body weights. The animals were fasted with water available for 12 to 14 h one day before the administration and were fed 4 h after the administration. [table] Before and after the administration, 0.15 mL of blood was taken from the orbit of the animals under isoflurane anesthesia and placed in an EDTAK2 centrifuge tube. The blood was centrifuged at 5000 rpm and 4° C. for 10 min to collect plasma. The blood collection time points for the intravenous administration group and intragastric administration group were: 0, 5 min, 15 min, 30 min, 1 h, 2 h, 4 h, 6 h, 8 h and 24 h. Before analysis and detection, all samples were stored at −80° C. The samples were analyzed quantitatively by LC-MS/MS.

[4] = Stability test of crystal form (purity by HPLC); format: physicochemical
Description: Samples were taken and tested at 92.5% RH, 40° C. and 60° C. respectively. The purity (represented by a percentage) was detected by HPLC.
With regard to methods for preparing test solutions and conditions for detecting purity by HPLC, reference was made to Tables 13 and 14.

pIC50 [1]: 8.70 | F [3]: 98.8%
Compound: CCc1cc2ncc(CN3CCN(c4ccc(C(=O)NC5CC5)nc4)CC3)cc2[nH]c1=O [Compound I, N-cyclopropyl-5-(4-((7-ethyl-6-oxo-5,6-dihydro-1,5-naphthyridin-3-yl)methyl)piperazin-1-yl)pyridine carboxamide]
inhibition at 10 µM ([1]; 10 μM, read-out: Max inh. % 10 μM): 89.4% | tumor growth after the drug withdrawal ([2]; 14 days drug withdrawal observation): did not grow again | body weight of the animals ([2]; Day 0-10 1 mg/kg, Day 11-28 0.1 mg/kg, once a day): no significant decrease | TGI ([2]; after 28 days of administration, Day 0-10 1 mg/kg, Day 11-28 0.1 mg/kg, once a day): 119%

Maximum individual impurity ([4]; 0 d): 0.494% | RRT 0.31 impurity ([4]; 0 d): 0.494% | RRT 0.36 impurity ([4]; 0 d): 0.071% | RRT 0.49 impurity ([4]; 0 d): 0.170% | RRT 0.72 impurity ([4]; 0 d): 0.248% | RRT 1.00 (purity by HPLC) ([4]; 0 d): 98.425% | RRT 1.14 impurity ([4]; 0 d): 0.065% | RRT 1.33 impurity ([4]; 0 d): 0.079% | Total impurity ([4]; 0 d): 1.575% | Maximum individual impurity ([4]; 40° C.-6 d): 0.438% | RRT 0.31 impurity ([4]; 40° C.-6 d): 0.438% | RRT 0.36 impurity ([4]; 40° C.-6 d): 0.097% | RRT 0.49 impurity ([4]; 40° C.-6 d): 0.195% | RRT 0.72 impurity ([4]; 40° C.-6 d): 0.241% | RRT 1.00 (purity by HPLC) ([4]; 40° C.-6 d): 98.494% | RRT 1.14 impurity ([4]; 40° C.-6 d): 0.071% | RRT 1.33 impurity ([4]; 40° C.-6 d): 0.069% | Total impurity ([4]; 40° C.-6 d): 1.506% | Maximum individual impurity ([4]; 40° C.-10 d): 0.507% | RRT 0.31 impurity ([4]; 40° C.-10 d): 0.507% | RRT 0.36 impurity ([4]; 40° C.-10 d): 0.100% | RRT 0.49 impurity ([4]; 40° C.-10 d): 0.194% | RRT 0.72 impurity ([4]; 40° C.-10 d): 0.232% | RRT 1.00 (purity by HPLC) ([4]; 40° C.-10 d): 98.459% | RRT 1.14 impurity ([4]; 40° C.-10 d): 0.069% | RRT 1.33 impurity ([4]; 40° C.-10 d): 0.061% | Total impurity ([4]; 40° C.-10 d): 1.541% | Maximum individual impurity ([4]; 40° C.-30 d): 0.467% | RRT 0.31 impurity ([4]; 40° C.-30 d): 0.467% | RRT 0.36 impurity ([4]; 40° C.-30 d): 0.115% | RRT 0.49 impurity ([4]; 40° C.-30 d): 0.144% | RRT 0.72 impurity ([4]; 40° C.-30 d): 0.252% | RRT 1.00 (purity by HPLC) ([4]; 40° C.-30 d): 98.519% | RRT 1.14 impurity ([4]; 40° C.-30 d): 0.077% | RRT 1.33 impurity ([4]; 40° C.-30 d): 0.060% | Total impurity ([4]; 40° C.-30 d): 1.481% | Maximum individual impurity ([4]; 60° C.-6 d): 0.452% | RRT 0.31 impurity ([4]; 60° C.-6 d): 0.452% | RRT 0.36 impurity ([4]; 60° C.-6 d): 0.097% | RRT 0.49 impurity ([4]; 60° C.-6 d): 0.193% | RRT 0.72 impurity ([4]; 60° C.-6 d): 0.229% | RRT 1.00 (purity by HPLC) ([4]; 60° C.-6 d): 98.522% | RRT 1.14 impurity ([4]; 60° C.-6 d): 0.070% | RRT 1.33 impurity ([4]; 60° C.-6 d): 0.064% | Total impurity ([4]; 60° C.-6 d): 1.478% | Maximum individual impurity ([4]; 60° C.-10 d): 0.498% | RRT 0.31 impurity ([4]; 60° C.-10 d): 0.498% | RRT 0.36 impurity ([4]; 60° C.-10 d): 0.103% | RRT 0.49 impurity ([4]; 60° C.-10 d): 0.206% | RRT 0.72 impurity ([4]; 60° C.-10 d): 0.247% | RRT 1.00 (purity by HPLC) ([4]; 60° C.-10 d): 98.447% | RRT 1.14 impurity ([4]; 60° C.-10 d): 0.068% | RRT 1.33 impurity ([4]; 60° C.-10 d): 0.069% | Total impurity ([4]; 60° C.-10 d): 1.553% | Maximum individual impurity ([4]; 60° C.-30 d): 0.457% | RRT 0.31 impurity ([4]; 60° C.-30 d): 0.457% | RRT 0.36 impurity ([4]; 60° C.-30 d): 0.112% | RRT 0.49 impurity ([4]; 60° C.-30 d): 0.145% | RRT 0.72 impurity ([4]; 60° C.-30 d): 0.244% | RRT 1.00 (purity by HPLC) ([4]; 60° C.-30 d): 98.499% | RRT 1.14 impurity ([4]; 60° C.-30 d): 0.084% | RRT 1.33 impurity ([4]; 60° C.-30 d): 0.056% | Total impurity ([4]; 60° C.-30 d): 1.501% | chemical stability ([4]; 92.5% RH, 40° C. and 60° C., up to 30 d): good chemical stability | Maximum individual impurity ([4]; 92.5% RH-6 d): 0.468% | RRT 0.31 impurity ([4]; 92.5% RH-6 d): 0.468% | RRT 0.36 impurity ([4]; 92.5% RH-6 d): 0.107% | RRT 0.49 impurity ([4]; 92.5% RH-6 d): 0.191% | RRT 0.72 impurity ([4]; 92.5% RH-6 d): 0.244% | RRT 1.00 (purity by HPLC) ([4]; 92.5% RH-6 d): 98.503% | RRT 1.14 impurity ([4]; 92.5% RH-6 d): 0.068% | RRT 1.33 impurity ([4]; 92.5% RH-6 d): 0.066% | Total impurity ([4]; 92.5% RH-6 d): 1.497% | Maximum individual impurity ([4]; 92.5% RH-10 d): 0.518% | RRT 0.31 impurity ([4]; 92.5% RH-10 d): 0.518% | RRT 0.36 impurity ([4]; 92.5% RH-10 d): 0.110% | RRT 0.49 impurity ([4]; 92.5% RH-10 d): 0.206% | RRT 0.72 impurity ([4]; 92.5% RH-10 d): 0.246% | RRT 1.00 (purity by HPLC) ([4]; 92.5% RH-10 d): 98.358% | RRT 1.14 impurity ([4]; 92.5% RH-10 d): 0.073% | RRT 1.33 impurity ([4]; 92.5% RH-10 d): 0.066% | Total impurity ([4]; 92.5% RH-10 d): 1.642% | Maximum individual impurity ([4]; 92.5% RH-30 d): 0.475% | RRT 0.31 impurity ([4]; 92.5% RH-30 d): 0.475% | RRT 0.36 impurity ([4]; 92.5% RH-30 d): 0.099% | RRT 0.49 impurity ([4]; 92.5% RH-30 d): 0.137% | RRT 0.72 impurity ([4]; 92.5% RH-30 d): 0.243% | RRT 1.00 (purity by HPLC) ([4]; 92.5% RH-30 d): 98.499% | RRT 1.14 impurity ([4]; 92.5% RH-30 d): 0.075% | RRT 1.33 impurity ([4]; 92.5% RH-30 d): 0.056% | Total impurity ([4]; 92.5% RH-30 d): 1.501%
Compound: CCc1cc2ncc(CN3CCN(c4ccc(C(=O)NC5CC5)nc4)CC3)cc2[nH]c1=O [crystal form G, N-cyclopropyl-5-(4-((7-ethyl-6-oxo-5,6-dihydro-1,5-naphthyridin-3-yl)methyl)piperazin-1-yl)pyridine carboxamide]

Source: US20260055104A1, “CRYSTAL FORM OF HETEROARYL DERIVATIVE PARP INHIBITOR AND USE THEREOF” (priority 2022, published 2026)
